The text below walks through data of PMC7949159, “Optimized binding of substituted quinoline ALLINIs within the HIV-1 integrase oligomer” (The Journal of Biological Chemistry, 2021).

The subject of data set [1] is HIV-1 virions (viral core density). Briefly: Sucrose density gradient fractionation of detergent-lysed virions (p24 distribution). It counts as cell-based. The following applies: 1 μM during viral production, versus DMSO; fractions 16–22. An excerpt:
We and others have previously observed how ALLINIs interfere with proper virus particle maturation and yield noninfectious particles with eccentrically positioned RNPs. This mislocalization of the RNP to a position located between the low density empty capsid (CA) core and the particle membrane in mature virions has been observed using electron microscopy ([17], [31], [32]). The buoyant sucrose gradient technique that measure the relative density of the viral core of mature virions has also been validated as an effective approach to characterize this mislocalization of the RNP ([17], [33], [34]). […] The CA core density was then detected by measuring the HIV-1 CA (p24) content of each sucrose fraction.
For sucrose density gradient fractionation ([17], [33], [34]), cell-free virions produced from HEK293T cells transfected with pNL4-3 in the absence or presence of indicated concentration of ALLINI were concentrated by ultracentrifugation over a 25% sucrose cushion, pelleted virions were lysed with 0.5% Triton X-100 and were ultracentrifuged through a 20% to 70% (wt/vol) linear sucrose density gradient at 28,500 rpm for 16 h at 4C in SW40 rotor (Beckman). […] The relative distribution of HIV-1 capsid was determined by quantifying the Western blot p24 signal. […]

Data set [2] concerns the target T1, HIV-1 IN (full-length, His-tagged and FLAG-tagged) (Human immunodeficiency virus type 1 group M subtype B, UniProt P12497).
T1 construct: recombinant proteins 6xHis-tagged and FLAG-tagged full-length INs were expressed in E. coli; made in house; host or cells: E. coli
Briefly: HTRF-based IN multimerization assay. It counts as biochemical. The following applies: average with SD of three independent experiments, read-out: In vitro IN multimerization EC50. As to the method:
For biochemical studies, recombinant proteins 6xHis-tagged and FLAG-tagged full-length INs were expressed in E. coli and purified by column chromatography as previously described ([39]). The HTRF-based assay used to monitor inhibitor-induced aberrant multimerization of IN was performed as previously reported ([15], [19]). Briefly, two separate preparations of His-tagged and FLAG-tagged IN proteins were mixed in presence of increasing concentration of the test compounds and incubated for 2.5 h at room temperature. Anti-His6-XL665 and anti-FLAG-EuCryptate antibodies (Cisbio, Inc) were then added to the reaction and incubated at room temperature for 3 h.
A general note: TR-FRET usually uses a lanthanide donor and a delayed reading to cut background.

The test system of a further data set is noninfected cells. Briefly: CyQUANT XTT Cell Viability cytotoxicity assay. It is filed as cell-based.
The test system of a further data set is HIV-1. Here is the method: For early stage experiments, viral infectivity of target cells was measured in the presence of increasing concentrations of inhibitors. For late stage, producer cells were transfected in the presence of increasing concentrations of inhibitors, cell-free virions were harvested at 48 h, and the amounts of viral particles produced were measured by p24 concentration essay. Subsequently, the infectivity of these progeny virions was examined without any additional inhibitor being added to the target cells. […] For full viral cycle experiments, the same inhibitor concentrations were added in the producer cells and the target cells ([31]).
The EC50 values were determined in single replication cycle as described previously ([17]). […] The virus supernatants were collected 24 h after drug treatment, and p24 concentrations were determined by HIV-1 Gag p24 ELISA (ZeptoMetrix) following manufacturer’s protocol. The target cells were then infected with HIV-1 virions equivalent to 4 ng of HIV-1 p24, in the absence or presence of indicated concentrations of drugs. To measure EC50 values during the early replication stage, DMSO or the inhibitor was added to the target cells 60 min before infection. The cells were cultured for 48 h, and the cell extracts were prepared using reporter lysis buffer (Promega). Luciferase activity was determined using a commercially available kit (Promega). The cytotoxicity assays were performed on noninfected cells using the commercially available CyQUANT XTT Cell Viability Assay (Invitrogen, Inc) by following the manufacturer protocol. The dose–response curves were fitted with a sigmoidal dose–response equation with Hill slope to determine the compound IC50 and CC50 using Origin software (v9.7).

Data set [3] concerns the target T2, HIV-1 IN-CTD / full-length IN complex (Human immunodeficiency virus type 1 group M subtype B, UniProt P12497).
T2 construct: His-tagged CTD-IN and FLAG-tagged full-length IN proteins were mixed; made in house; host or cells: E. coli (stated for the full-length INs)
The experiment in a line: HTRF-based CTD binding assay (His-tagged CTD-IN with FLAG-tagged full-length IN). It is filed as biochemical. The following applies: 200 nM of ALLINI. An excerpt:
To detect in isolation the specific contribution of the IN-CTD to the ALLINI-induced IN multimer complex formation, we have modified our published HTRF-based assay (Fig. 3, A and B). In this new analytical assay, anti-His6-XL665 and anti-FLAG-EuCryptate antibodies allow the detection of fluorescence energy transfer only when FLAG-tagged full-length IN protein tightly interacts with a His-tagged IN-CTD construct. Mixing of the proteins and without compound addition generated a small HTRF signal (Fig. 3C, dimethyl sulfoxide [DMSO]) indicating a weak interaction between the full-length IN and the IN-CTD construct. Strikingly, the addition of ALLINI to the assay promoted a significant increase of HTRF signals proportional to the IN multimerization properties of the compound.
Figure 3 C-terminal domain (CTD) contribution to the ALLINI-induced IN multimer formation.A, schematic of the standard HTRF-based IN multimerization assay. […] C, HTRF signal intensities recorded after the addition of 200 nM of ALLINI to a mixture of Flag tagged full-length IN and His-tagged CTD domain proteins as described in the Methods section. ALLINI, allosteric IN inhibitors; HTRF, homogeneous time resolved fluorescence; IN, integrase.
The CTD-IN protein was generated and purified using a published method ([40]). […] The HTRF binding signal between proteins was recorded using a PerkinElmer EnSpire multimode plate reader.

Read-outs that look alike come from different tables or passages of the source.

As to `COc1ccccc1-c1ccc2c(-c3ccc4c(c3)OCCO4)c(C(OC(C)(C)C)C(=O)O)c(C)nc2c1` (stereo not shown) [JDH-2110], the “Effect on HIV-1 capsid (p24) distribution in sucrose density gradient fractions” value in data set [1] was “reduction of CA signal in high-density fractions”. In addition, the half-maximal effective concentration (EC50) in data set [2] came out at 40 ± 10 nM. Besides, the CC50 in the data set on noninfected cells was greater than 100000 nM. In the data set on HIV-1, the “Fold improvement of overall antiviral IC50” value is reported as “about 30 fold”, the “Fold increase of PSI” value worked out at 7 fold and the “PSI (phase specificity index)” value amounted to 465. The IC50 in the data set on HIV-1 (read-out: Early IC50) turned out to be 9300 ± 500 nM. In addition, the concentration for half-maximal inhibition (IC50) with HIV-1 (read-out: Full IC50) came out at 30 ± 10 nM. Besides, the half-maximal inhibitory concentration (IC50) in the data set on HIV-1 (read-out: Late IC50) amounted to 20 ± 10 nM. In data set [3], the “HTRF signal intensity, CTD / full-length IN complex” value is “higher HTRF than NGJ9002”.

`Cc1nc2ccccc2c(-c2ccc3c(c2)OCCO3)c1C(OC(C)(C)C)C(=O)O` (stereo not shown) [NGJ-9002]: in data set [2], the EC50 is 110 ± 10 nM. In the data set on noninfected cells, the CC50 was greater than 100000 nM. Moreover, the “PSI (phase specificity index)” value with HIV-1 worked out at 64. The IC50 with HIV-1 (read-out: Early IC50) was 42000 ± 3000 nM; in the data set with HIV-1 (read-out: Full IC50), 830 ± 50 nM; in the data set with HIV-1 (read-out: Late IC50), 660 ± 30 nM.

What is called EC50 is the concentration giving half of the maximal effect. A word on the CC50: it is the concentration giving 50% cytotoxicity. High values mean lower toxicity to the cells, low ones greater toxicity to the cells. By IC50 is commonly meant the concentration that gives 50% inhibition.
